Source: patent publication US7572439B2, “Enzyme disruption of bacterial biofilms” (priority 2002, dated 2009)

Legend:
[1] = system: S. epidermidis; test: Killing of bacteria in lysostaphin-coated Angiocath catheters; format: cell-based; conditions: for CFU (n = 2): catheter coating 0.1 mg/ml; for log reduction from the control sample: coated catheters
Experimental: Coating of Catheters. The needles from the AngioCath catheters were removed and disposed. Using a 1 ml syringe, the catheters were coated with 200 μl of a 0.1 mg/ml solution of lysostaphin. The catheters were incubated for 1 hour, unless otherwise specified, at room temperature. The catheters were then washed with 50 ml of phosphate buffered saline using a peristaltic pump with a flow rate of 1.5 ml/minute. The catheters were then inoculated with 120 μl of a ˜5×10^4 CFU/ml solution of bacteria (diluted in TSB) and incubated for 2 hours at 37° C. The catheter effluent was then streaked onto a blood agar plate and incubated overnight at 37° C.

[2] = system: S. aureus strain SA5; test: Killing of bacteria in lysostaphin-coated polystyrene wells; format: cell-based; conditions: for CFU (n = 2): Table 13, Polystyrene
Experimental: Six wells were incubated with 300 μl of either 10 mg/ml, 1 mg/ml or 100 μg/ml of lysostaphin diluted in PBS. All the samples were done in duplicates. The plate was allowed to incubate overnight at 4° C. The following morning the wells were washed with 1 ml of PBS ten times, using vacuum suction to clean out the wells. S. aureus strain SA5 was diluted in PBS to a percent transmittance of 40. A 1:10,000 dilution of this solution was made, and 300 μl was added to each well. The plates were put in a shaking incubator at 75 rpm for two hours at 37° C. After two hours, 40 μl from each well was taken out and plated onto a blood agar plate and put in the incubator overnight at 37° C. The colonies on the plates were counted the following morning.
Coating of polystyrene wells. Wells were coated with 300 μl of 10 mg/ml, 1 mg/ml or 0.1 mg/ml of lysostaphin diluted in PBS. The plate was incubated overnight at 4° C. Wells were washed with 1 ml of PBS ten times, and washes were removed by vacuum suction. 300 μl of a 5×10^4 CFU/ml solution of S. aureus was added to each well. The plate was shaken at 75 rpm for two hours at 37° C. 40 μl from each well was then removed and streaked onto a blood agar plate and incubated overnight at 37° C.

[3] = system: SA5; test: Long-term leaching of lysostaphin from coated catheters; format: cell-based, S. aureus
Experimental: Long-term Leaching of Lysostaphin. Ten lysostaphin-coated catheters (10 mg/ml coating concentration) were incubated with PBS for 2 hours at 37° C. The catheters were then washed and two of the ten lysostaphin coated catheters were incubated with 200 μl of a 5×10^4 CFU/ml solution of SA5 for 2 hours at 37° C. The effluent was streaked on to blood agar plates and incubated at 37° C. overnight. The rest of the catheters were incubated with fresh PBS and left at 37° C. overnight. The following day, all eight catheters were washed out and two of the catheters were incubated with bacteria as above. The other six catheters were again incubated with fresh PBS and left at 37° C. overnight. This procedure was repeated everyday for four days.

[4] = system: S. epidermidis biofilms; test: Disruption of S. epidermidis biofilms on glass chamber slide; format: cell-based; parameters: dose or concentration left out as unconfirmed
Description: Three S. epidermidis strains with various capacities for glycocalyx (slime) production were examined including, S. epidermidis strain Hay (a low slime producer), S. epidermidis strain SEI 175 (a moderate slime producer) and S. epidermidis ATCC 35984 (a high slime producer). All three of these S. epidermidis strains produced biofilms on a glass chamber slide (FIG. 9) with ATCC 35984 producing the thickest and most darkly staining biofilm as expected. […] S. aureus strain SA113 was included in this experiment as a control. […] The stained material visible in lysostaphin treated wells is extracellular glycocalyx which stained pink by safranin and contained no intact gram positive S. epidermidis cells, only cellular debris.

[5] = system: Methicillin Sensitive S. aureus; test: Treatment of established infection in jugular vein catheterized mice; format: in vivo
Experimental: (§1) Jugular vein catheterized mice (Charles River Labs) were used. The mice were challenged through the tail vein with S. aureus (10^3-10^4CFU, a much lower dose than the 5×10^6 CFU or greater typically necessary to establish an infection in mice not catheterized). Treatment began four days post challenge when infection was established. Lysostaphin was administered through the indwelling catheter in a volume of 200 μ PBS (in the case of methicillin resistant S. aureus, nafcillin was added to the treatment). After the final treatment of the day, 50 μl of a lock solution (50% sterile glucose solution) with lysostaphin (and nafcillin, when used), added at the same concentration as used for treatment, was put in the catheters. Control mice received equal treatments with PBS and lock solution alone.
(§2) On the day following the last treatment the liver, heart and a portion of the catheter in the heart were harvested. The catheter portions were sonicated to release bacteria.

[6] = system: Methicillin-Resistant S. aureus; test: as above; format: in vivo
Experimental: as §1, §2

[7] = Table 7, MRSA, 20 mg/kg t.i.d. 4 days

For lysostaphin, the “CFU (n = 2)” value ([1]; S. epi 380) was 4 CFU, the “CFU (n = 2)” value ([1]; S. epi 1175) was 68 CFU and the “CFU (n = 2)” value ([1]; S. epi 35984) was 16 CFU. The “log reduction from the control sample” value ([1]; S. epidermidis 1175) was 1.1 log, the “log reduction from the control sample” value ([1]; S. epidermidis ATCC 35984) was 1.8 log and the “log reduction from the control sample” value ([1]; S. epidermidis type 380) was 2.2 log. For the same substance, the “CFU (n = 2)” value ([2]; coating concentration 0.1 mg/ml) was 3 CFU, the “CFU (n = 2)” value ([2]; coating concentration 1 mg/ml) was 1 CFU and the “CFU (n = 2)” value ([2]; coating concentration 10 mg/ml) was 1 CFU. The “log reduction in bacterial counts” value ([2]; bacteria added directly to the 0.1 mg/mL coated wells) was 2.4 log, the “reduction in bacterial counts” value ([2]; lysostaphin coated polystyrene wells vs control wells) was 99.5% and the “CFU's remaining in lysostaphin coated wells, on average” value ([2]; polystyrene wells, 610 CFU's in control wells) was 3 CFU. For the same substance, the “log reduction in bacteria recovered vs uncoated catheters” value ([3]; 10 mg/ml coated catheters, two-hour incubation with PBS) was 2.8 log, the “log reduction in bacterial counts” value ([3]; PBS incubation 24 hours) was 1.8 log and the “log reduction in bacterial counts” value ([3]; PBS incubation 48 hours) was 1.5 log. For the same substance, the “log reduction in bacterial counts” value ([3]; PBS incubation 72 hours) was 0.7 log, the “log reduction in bacterial counts” value ([3]; PBS incubation 96 hours) was 0.3 log and the “intact bacteria on surface after treatment (microscopic examination)” value ([4]; three hours (data not shown)) was “no intact bacteria left”. For the same substance, the “disruption of S. epidermidis biofilms (safranin)” value ([4]; three hours, strains Hay, SE1175, ATCC 35984) was “disrupted the biofilms of all three strains”, the “S. aureus biofilm on implanted catheters (SEM, FIG. 6)” value ([5]; jugular vein catheterized mice after treatment) was “cleared the S. aureus biofilm from these catheters” and the “dose required for clearance of an established catheter infection” value ([5]; methicillin sensitive S. aureus, t.i.d. for 4 days) was 20 mg/kg. The “S. aureus recovered, Heart” value [6, 7] was 0 CFU, the “S. aureus recovered, Liver” value [6, 7] was 0 CFU and the “S. aureus recovered, Heart” value ([6]; Table 7, MRSA, 40 mg/kg t.i.d. 4 days) was 0 CFU. For the same substance, the “clearance of the S. aureus infection” value ([6]; lower doses or different dosing regimens (40 mg/kg once then 5 mg/kg; 3 doses of 15 mg/kg then 5 mg/kg)) was “did not result in complete clearance” and the “minimum dose necessary to clear catheters in mice” value ([6]; three times a day for four days) was 40 mg/kg.
